Reference: patent US10689367B2, “Triazole pyridyl compounds as agonists of the APJ receptor” (AMGEN INC., priority 2016, dated 2020)

The compounds below were run against human APJ receptor (Homo sapiens (Human), UniProt P35414) (assay: [35S]GTPγS binding assay on membranes from CHO cells stably expressing human APJ receptor). Conditions: membranes of CHO cells stably expressing human APJ receptor, read-out: Activity hAPJ SPA EC50 IP.
Assay type: biochemical
How it was run: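 [35S]GTPγS binding measured on membranes from CHO cells stably expressing FLAG-tagged human APJ, with GDP, MgCl2 and NaCl levels optimized beforehand. Incubation 90 min at RT, imager read-out; EC50 from non-linear regression, averaged over several independent experiments.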

Sequence of human APJ receptor (P35414 whole entry): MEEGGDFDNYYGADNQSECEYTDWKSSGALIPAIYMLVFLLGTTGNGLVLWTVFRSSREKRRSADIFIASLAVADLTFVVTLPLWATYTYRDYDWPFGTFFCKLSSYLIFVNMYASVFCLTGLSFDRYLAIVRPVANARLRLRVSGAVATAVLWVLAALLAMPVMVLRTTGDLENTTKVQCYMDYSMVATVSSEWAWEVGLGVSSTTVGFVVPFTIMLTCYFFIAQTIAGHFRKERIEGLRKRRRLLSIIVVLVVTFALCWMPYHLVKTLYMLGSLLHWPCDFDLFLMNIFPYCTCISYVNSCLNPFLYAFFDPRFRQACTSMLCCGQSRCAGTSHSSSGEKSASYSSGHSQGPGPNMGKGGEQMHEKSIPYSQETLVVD

Structure (SMILES) | EC50
COc1cccc(-c2nnc(NS(=O)(=O)[C@@H](C)[C@H](C)c3ncc(C)cn3)n2C2CC2)n1 [Example 114.0] | 54 nM
COc1cnc([C@@H](C)[C@H](C)S(=O)(=O)Nc2nnc(-c3cccc(OC)n3)n2C2CC2)cn1 [Example 118.0] | 31 nM
COc1cnc([C@@H](C)[C@H](C)S(=O)(=O)Nc2nnc(-c3cccc(OC)n3)n2C2CC2)nc1 [Example 119.0] | 28 nM
COc1cccc(-c2nnc(NS(=O)(=O)[C@@H](C)[C@H](OC)c3ncc(C)cn3)n2C2CC2)n1 [Example 120.0] | 24 nM
COc1cnc([C@@H](OC)[C@H](C)S(=O)(=O)Nc2nnc(-c3cccc(OC)n3)n2C2CC2)cn1 [Example 121.0] | 21 nM
COc1cccc(-c2nnc(NS(=O)(=O)[C@@H](C)[C@H](OC)c3cnc(C)cn3)n2C2CC2)n1 [Example 122.0] | 56 nM
COc1cccc(-c2nnc(NS(=O)(=O)[C@@H](C)[C@@H](OC(C)C)c3cnc(C)cn3)n2C2CC2)n1 [Example 123.0] | 5.6 nM
COC[C@@H](C)n1c(NS(=O)(=O)[C@@H](C)[C@H](OC)c2ncc(Cl)cn2)nnc1-c1ccccn1 [Example 124.0] | 24 nM
COC[C@@H](C)n1c(NS(=O)(=O)[C@@H](C)[C@H](OC)c2ncc(Cl)cn2)nnc1-c1cccnc1 [Example 125.0] | 90 nM
COC[C@@H](C)n1c(NS(=O)(=O)[C@@H](C)[C@H](OC)c2ncc(Cl)cn2)nnc1-c1cncc(C)c1 [Example 126.0] | 38 nM
CC(C)O[C@@H](c1ncc(Cl)cn1)[C@H](C)S(=O)(=O)Nc1nnc(-c2ccccn2)n1C1CC1 [Example 127.0] | 48 nM
CC(C)O[C@@H](c1ncc(Cl)cn1)[C@H](C)S(=O)(=O)Nc1nnc(-c2cccnc2)n1C1CC1 [Example 128.0] | 55 nM
Cc1cncc(-c2nnc(NS(=O)(=O)[C@@H](C)[C@@H](OC(C)C)c3ncc(Cl)cn3)n2C2CC2)c1 [Example 129.0] | 66 nM
CO[C@H](c1ncc(Cl)cn1)[C@H](C)S(=O)(=O)Nc1nnc(-c2ccccn2)n1C [Example 130.0] | 350 nM
CCn1c(NS(=O)(=O)[C@@H](C)[C@H](OC)c2ncc(Cl)cn2)nnc1-c1ccccn1 [Example 131.0] | 25 nM
COCCn1c(NS(=O)(=O)[C@@H](C)[C@H](OC)c2ncc(Cl)cn2)nnc1-c1ccccn1 [Example 132.0] | 150 nM
CO[C@H](c1ncc(Cl)cn1)[C@H](C)S(=O)(=O)Nc1nnc(-c2cccnc2)n1C(C)C [Example 134.0, (1R,2S)-1-(5-chloro-2-pyrimidinyl)-1-methoxy-N-(4-(2-propanyl)-5-(3-pyridinyl)-4H-1,2,4-triazol-3-yl)-2-propanesulfonamide] | 170 nM
CO[C@H](c1ncc(Cl)cn1)[C@H](C)S(=O)(=O)Nc1nnc(-c2ccncc2)n1C(C)C [Example 135.0, (1R,2S)-1-(5-chloro-2-pyrimidinyl)-1-methoxy-N-(4-(2-propanyl)-5-(4-pyridinyl)-4H-1,2,4-triazol-3-yl)-2-propanesulfonamide] | 1900 nM

Structure (SMILES) | EC50
CO[C@H](c1ncc(Cl)cn1)[C@H](C)S(=O)(=O)Nc1nnc(-c2ccccn2)n1C(C)C [Example 136.0, (1R,2S)-1-(5-chloro-2-pyrimidinyl)-1-methoxy-N-(4-(2-propanyl)-5-(2-pyridinyl)-4H-1,2,4-triazol-3-yl)-2-propanesulfonamide] | 57 nM
COc1cccc(-c2nnc(NS(=O)(=O)[C@@H](C)[C@H](OC)c3ncc(Cl)cn3)n2CC2CCO2)n1 (stereo partly drawn) [Example 137.0, (1R,2S)-1-(5-chloropyrimidin-2-yl)-1-methoxy-N-(5-(6-methoxypyridin-2-yl)-4-(oxetan-2-ylmethyl)-4H-1,2,4-triazol-3-yl)propane-2-sulfonamide] | 22 nM
[2H]C1([2H])C(n2c(NS(=O)(=O)[C@@H](C)[C@H](OC)c3ncc(Cl)cn3)nnc2-c2cccc(OC)n2)C1([2H])[2H] [Example 148.0, (1R,2S)-1-(5-Chloropyrimidin-2-yl)-N-(4-(cyclopropyl-2,2,3,3-d4)-5-(6-methoxypyridin-2-yl)-4H-1,2,4-triazol-3-yl)-1-methoxypropane-2-sulfonamide] | 6.8 nM
CO[C@H](c1ncc(Cl)cn1)[C@H](C)S(=O)(=O)Nc1nnc(-c2cncc(C)c2)n1C1CC1 [Example 149.0, (1R,2S)-1-(5-Chloropyrimidin-2-yl)-N-(4-cyclopropyl-5-(5-methylpyridin-3-yl)-4H-1,2,4-triazol-3-yl)-1-methoxypropane-2-sulfonamide] | 36 nM
COc1cccc(-c2nnc(NS(=O)(=O)[C@@H](C)[C@H](OC)c3ncc(Cl)cn3)n2C2C3(CC3)C23CC3)n1 [Example 163.0, (1R,2S)-1-(5-Chloropyrimidin-2-yl)-N-(4-(dispiro[2.0.24.13]heptan-7-yl)-5-(6-methoxypyridin-2-yl)-4H-1,2,4-triazol-3-yl)-1-methoxypropane-2-sulfonamide] | 52 nM
[2H]C1([2H])C(n2c(NS(=O)(=O)[C@@H](C)[C@@H](OC(C)C)c3ncc(C)cn3)nnc2-c2cccc(OC)n2)C1([2H])[2H] [Example 164.0, (1S,2S)—N-(4-(Cyclopropyl-2,2,3,3-d4)-5-(6-methoxypyridin-2-yl)-4H-1,2,4-triazol-3-yl)-1-isopropoxy-1-(5-methylpyrimidin-2-yl)propane-2-sulfonamide] | 11 nM
COc1cccc(-c2nnc(NS(=O)(=O)[C@@H](C)[C@H](OC)c3ncc(Cl)cn3)n2[C@@H]2C[C@@H]2F)n1 [Example 169.0, (1R,2S)-1-(5-Chloropyrimidin-2-yl)-N-(4-((1R,2S)-2-fluorocyclopropyl)-5-(6-methoxypyridin-2-yl)-4H-1,2,4-triazol-3-yl)-1-methoxypropane-2-sulfonamide] | 20 nM
COc1ccc(Cn2c(NS(=O)(=O)[C@@H](C)[C@H](OC)c3ncc(Cl)cn3)nnc2-c2cccc(OC)n2)cc1 [Example 170.0, (1R,2S)-1-(5-chloropyrimidin-2-yl)-1-methoxy-N-(4-(4-methoxybenzyl)-5-(6-methoxypyridin-2-yl)-4H-1,2,4-triazol-3-yl)propane-2-sulfonamide] | 0.76 nM
COCC(COC)n1c(NS(=O)(=O)[C@@H](C)[C@@H](OC(C)C)c2ncc(F)cn2)nnc1-c1cccc(OC)n1 [Example 171.0, (1S,2S)-N-(4-(1,3-dimethoxy-2-propanyl)-5-(6-methoxy-2-pyridinyl)-4H-1,2,4-triazol-3-yl)-1-(5-fluoro-2-pyrimidinyl)-1-(2-propanyloxy)-2-propanesulfonamide] | 0.37 nM
COCC(COC)n1c(NS(=O)(=O)[C@@H](C)[C@@H](OC(C)C)c2ncc(OC)cn2)nnc1-c1cccc(OC)n1 [Example 172.0, (1S,2S)-N-(4-(1,3-dimethoxy-2-propanyl)-5-(6-methoxy-2-pyridinyl)-4H-1,2,4-triazol-3-yl)-1-(5-methoxy-2-pyrimidinyl)-1-(2-propanyloxy)-2-propanesulfonamide] | 1.4 nM
COC[C@H](C)n1c(NS(=O)(=O)[C@@H](C)[C@H](C)c2ncc(Cl)cn2)nnc1-c1cccc(OC)n1 [Example 174.0, (2S,3R)-3-(5-chloro-2-pyrimidinyl)-N-(4-((2S)-1-methoxy-2-propanyl)-5-(6-methoxy-2-pyridinyl)-4H-1,2,4-triazol-3-yl)-2-butanesulfonamide] | 3.3 nM
COC[C@H](C)n1c(NS(=O)(=O)[C@@H](C)[C@H](C)c2ncc(Cl)cn2)nnc1-c1ccccn1 [Example 175.0, (2S,3R)-3-(5-chloro-2-pyrimidinyl)-N-(4-((2S)-1-methoxy-2-propanyl)-5-(2-pyridinyl)-4H-1,2,4-triazol-3-yl)-2-butanesulfonamide] | 30 nM
COC[C@H](C)n1c(NS(=O)(=O)[C@@H](C)[C@H](C)c2ncc(Cl)cn2)nnc1-c1cncc(C)c1 [Example 176.0, (2S,3R)-3-(5-chloro-2-pyrimidinyl)-N-(4-((2S)-1-methoxy-2-propanyl)-5-(5-methyl-3-pyridinyl)-4H-1,2,4-triazol-3-yl)-2-butanesulfonamide] | 110 nM
COc1cccc(-c2nnc(NS(=O)(=O)[C@@H](C)[C@@H](OC(C)C)c3ncc(Cl)cn3)n2C(C)C)n1 [Example 177.0, (1S,2S)-1-(5-chloro-2-pyrimidinyl)-N-(5-(6-methoxy-2-pyridinyl)-4-(2-propanyl)-4H-1,2,4-triazol-3-yl)-1-(2-propanyloxy)-2-propanesulfonamide] | 8.9 nM
COC[C@@H](C)n1c(NS(=O)(=O)[C@@H](C)[C@@H](OC(C)C)c2ncc(Cl)cn2)nnc1-c1cccc(OC)n1 [Example 178.0, (1S,2S)-1-(5-chloro-2-pyrimidinyl)-N-(4-((2R)-1-methoxy-2-propanyl)-5-(6-methoxy-2-pyridinyl)-4H-1,2,4-triazol-3-yl)-1-(2-propanyloxy)-2-propanesulfonamide] | 0.32 nM
COC[C@H](C)n1c(NS(=O)(=O)[C@@H](C)[C@@H](OC(C)C)c2ncc(Cl)cn2)nnc1-c1cccc(OC)n1 [Example 179.0, (1S,2S)-1-(5-chloro-2-pyrimidinyl)-N-(4-((2S)-1-methoxy-2-propanyl)-5-(6-methoxy-2-pyridinyl)-4H-1,2,4-triazol-3-yl)-1-(2-propanyloxy)-2-propanesulfonamide] | 0.64 nM
COc1cccc(-c2nnc(NS(=O)(=O)[C@@H](C)[C@H](OC)c3ncc(Cl)cn3)n2[C@H]2C[C@@H](OC)C2)n1 [Example 180.0, (1R,2S)-1-(5-chloro-2-pyrimidinyl)-1-methoxy-N-(4-(cis-3-methoxycyclobutyl)-5-(6-methoxy-2-pyridinyl)-4H-1,2,4-triazol-3-yl)-2-propanesulfonamide] | 74 nM
COc1cccc(-c2nnc(NS(=O)(=O)[C@@H](C)[C@H](OC)c3ncc(Cl)cn3)n2[C@H]2C[C@H](OC)C2)n1 [Example 181.0, (1R,2S)-1-(5-chloro-2-pyrimidinyl)-1-methoxy-N-(4-(trans-3-methoxycyclobutyl)-5-(6-methoxy-2-pyridinyl)-4H-1,2,4-triazol-3-yl)-2-propanesulfonamide] | 190 nM
